# Source: patent publication US11207379B2, “Peptides with anti-cancer activity” (IDP DISCOVERY PHARMA, S.L., priority 2016, dated 2021)
# System: A549 cells
# Assay: Annexin V assay by flow cytometry
# Type: cell-based
# Conditions: A549 cells
# Method: Miltenyi Biotec Annexin V-FITC Kit was used. To detect apoptosis in early stage Phosphatidylserine in plasmatic membrane localization was measured, though the calcium dependent reaction with Annexine V. Annexin V molecules were labelled with different fluorophores (FITC) and analyzed by FACS. To detect apoptosis in late stage DNA-intercalating agents, such Propidium iodide (PI) were used.
# Cells were seeded at a density range of 150000-30000 cells/well in 12 wells plates, and incubated at 37° C. in the incubator under CO2 atmosphere. After 24 h, […] A549, HL-60 and MM.1S, at IC30 and/or IC80, with compounds IDP-S09 and IL-09, in cell lines HL-60 and MM.1S with compound IDP-S04 and in cell line A549 with compounds IDP-S02 and IDP-S03. Staurosporine and compound 100258-F4 (Sigma) were used as positive control and reference compound, respectively.
substance,measurement,value
RQRRNXLKRAFAXLRDQ-OH [IDP-S03],"apoptosis induction (Annexin V by FACS), in words",apoptosis induction is detected after 4 h at both IC30 and IC80
